Test results from ChEMBL document CHEMBL1129415, “Structure-activity relationship studies on benzofuran analogs of propafenone-type modulators of tumor cell multidrug resistance” (J Med Chem, 1996).
Activity calls are given as the source filed them. The rule behind the calls is not given here.

Key:
[1] = tested on: CCRF-CEM; assay: Effective dose against CCRF-CEM vcr 100 cells by using MTT assay; type: functional, Homo sapiens
[2] = tested on: CCRF-CEM
Description: Effective dose against CCRF-CEM vcr 100 cells by using rhodamine efflux studies.

[3] = Partition coefficient (logP); type: physicochemical; conditions: octanol/water
[4] = tested on: CCRF-CEM; assay: Compound was tested for effective dose against CCRF-CEM vcr 100 cells by using MTT assay; na=not active; type: functional, cell-based; conditions: Homo sapiens
[5] = tested on: CCRF-CEM; conditions: Homo sapiens
Description: Compound was tested for effective dose against CCRF-CEM vcr 100 cells by using rhodamine efflux studies; na=not active

| Compound | ED50 [1] | ED50 [2] | logP [3] | ED50 [4] | ED50 [5] |
| --- | --- | --- | --- | --- | --- |
| O=C(CCc1ccccc1)c1ccccc1OCC(O)CN1CCCC1 (stereo not drawn) | 520 nM | 2.55 uM l-1 | 3.26 | – | – |
| CC(C)N(CC(O)COc1ccccc1C(=O)CCc1ccccc1)C(C)C (stereo not drawn) | 290 nM | 0.61 uM l-1 | 4.25 | – | – |
| CN(C)CC(O)COc1ccccc1C(=O)CCc1ccccc1 (stereo not drawn) | 820 nM | 7.12 uM l-1 | 2.94 | – | – |
| O=C(CCc1ccccc1)c1ccccc1OCC(O)CN1CCOCC1 (stereo not drawn) | 1490 nM | 13.56 uM l-1 | 2.54 | – | – |
| CCCNCCc1oc2ccccc2c1CCc1ccccc1 | 870 nM | 2.9 uM l-1 | 4.71 | – | – |
| CCCNCC(O)c1oc2ccccc2c1CC (stereo not drawn) | 4190 nM | 69.6 uM l-1 | 3.1 | – | – |
| CCN(CC)CC(O)COc1ccccc1C(=O)CCc1ccccc1 (stereo not drawn) | 390 nM | 1.4 uM l-1 | 3.62 | – | – |
| O=C(CCc1ccccc1)c1ccccc1OCC(O)CNCc1ccccc1 (stereo not drawn) | 190 nM | 0.41 uM l-1 | 4.3 | – | – |
| CCCNCC(O)COc1ccccc1C(=O)CCc1ccccc1 (stereo not drawn) [PROPAFENONE] | – | 3.55 uM l-1 | – | – | – |
| CC(C)NCCc1oc2ccccc2c1CCc1ccccc1 | 1100 nM | 5.8 uM l-1 | 4.54 | – | – |
| CCCNCC(O)c1oc2ccccc2c1CCc1ccccc1 (stereo not drawn) | 1800 nM | 13.61 uM l-1 | 4.07 | – | – |
| O=C(CCc1ccccc1)c1ccccc1OCC(O)CN1CCN(c2ccc(F)cc2)CC1 (stereo not drawn) | 150 nM | 0.16 uM l-1 | 4.93 | – | – |
| COc1ccccc1N1CCN(CC(O)c2oc3ccccc3c2CCc2ccccc2)CC1 (stereo not drawn) | 210 nM | 0.46 uM l-1 | 5.32 | – | – |
| CCC(=O)c1ccccc1OCC(O)CN1CCOCC1 (stereo not drawn) | – | – | 0.94 | inactive | inactive |
| COc1ccccc1N1CCN(CC(=O)c2oc3ccccc3c2CCc2ccccc2)CC1 | 2020 nM | 4.96 uM l-1 | 5.05 | – | – |
| COc1ccc(N2CCN(CC(O)COc3ccccc3C(=O)CCc3ccccc3)CC2)cc1 (stereo not drawn) | 110 nM | 0.28 uM l-1 | 4.65 | – | – |
| Cc1ccccc1N1CCN(CC(O)COc2ccccc2C(=O)CCc2ccccc2)CC1 (stereo not drawn) | 50 nM | 0.06 uM l-1 | 5.26 | – | – |
| O=C(CCc1ccccc1)c1ccccc1OCC(O)CN1CCCCC1 (stereo not drawn) | 290 nM | 1.65 uM l-1 | 3.67 | – | – |
| CCCN(C)CC(O)COc1ccccc1C(=O)CCc1ccccc1 (stereo not drawn) | 270 nM | 1.36 uM l-1 | 3.77 | – | – |
| CC(=O)c1ccccc1OCC(O)CN1CCN(c2ccc(F)cc2)CC1 (stereo not drawn) | 890 nM | 8.61 uM l-1 | 2.67 | – | – |
